The nature of series [1]: xn = mol fraction of the nth substance listed. Particulars: 298.15 K, 101 kPa, Liquid.
Series [2] can be described thus: refractive index (Na D-line) (dimensionless); xn = mol fraction of the nth substance listed. Particulars: 298.15 K, 101 kPa, Liquid.

The structures appear in SMILES notation. ± gives the expanded uncertainty stated by the source.

As to `CCOS(=O)(=O)[O-].CCn1cc[n+](C)c1` [1-ethyl-3-methylimidazolium ethyl sulfate] + COC(=O)OC, the mass density in series [1] (x2 = 0) is listed as 1236.33 ± 0.8 kg/m3; in series [1] (x2 = 0.0502), 1233.17 ± 0.77 kg/m3; in series [1] (x2 = 0.0999), 1229.81 ± 0.75 kg/m3; in series [1] (x2 = 0.1987) it was 1223.27 ± 0.71 kg/m3; in series [1] (x2 = 0.2999), 1215.47 ± 0.67 kg/m3; in series [1] (x2 = 0.3994), 1206.15 ± 0.63 kg/m3. Further, the mass density in series [1] (x2 = 0.5006) stood at 1194.57 ± 0.59 kg/m3; in series [1] (x2 = 0.5999), 1180.67 ± 0.55 kg/m3; in series [1] (x2 = 0.7001), 1163.11 ± 0.5 kg/m3. Further, the refractive index in series [2] (x2 = 0) worked out at 1.47908 ± 0.00066; in series [2] (x2 = 0.0502), 1.47687 ± 0.00066; in series [2] (x2 = 0.0999) it was 1.47443 ± 0.00066; in series [2] (x2 = 0.1987), 1.46971 ± 0.00066; in series [2] (x2 = 0.2999) it was 1.46385 ± 0.00065; in series [2] (x2 = 0.3994), 1.45729 ± 0.00065. For the same molecule, the refractive index worked out at 1.44906 ± 0.00065 in series [2] (x2 = 0.5006), 1.43953 ± 0.00065 in series [2] (x2 = 0.5999) and 1.42848 ± 0.00065 in series [2] (x2 = 0.7001).

Consider `CO` [methanol] + COC(=O)OC, for which the mass density in series [1] (x2 = 0) amounted to 786.72 ± 0.49 kg/m3. The refractive index in series [2] (x2 = 0) is on record as 1.32668 ± 0.00064.

With `CCOS(=O)(=O)[O-].CCn1cc[n+](C)c1` [1-ethyl-3-methylimidazolium ethyl sulfate] + CO, the mass density is reported as 1236.33 ± 0.8 kg/m3 in series [1] (x2 = 0); 1232.01 ± 0.77 kg/m3 in series [1] (x2 = 0.0487); 1227.32 ± 0.75 kg/m3 in series [1] (x2 = 0.0977); 1216.77 ± 0.7 kg/m3 in series [1] (x2 = 0.1978); 1203.48 ± 0.65 kg/m3 in series [1] (x2 = 0.2989); 1186.7 ± 0.6 kg/m3 in series [1] (x2 = 0.3991). Further, the mass density was 1165.38 ± 0.55 kg/m3 in series [1] (x2 = 0.4991); 1137.34 ± 0.48 kg/m3 in series [1] (x2 = 0.5993); 1098.94 ± 0.4 kg/m3 in series [1] (x2 = 0.7002); 1043.62 ± 0.31 kg/m3 in series [1] (x2 = 0.7999); 953.54 ± 0.27 kg/m3 in series [1] (x2 = 0.9002); 884.35 ± 0.36 kg/m3 in series [1] (x2 = 0.9502). Further, the refractive index came to 1.47908 ± 0.00066 in series [2] (x2 = 0); 1.47873 ± 0.00066 in series [2] (x2 = 0.0487); 1.47637 ± 0.00066 in series [2] (x2 = 0.0977); 1.47035 ± 0.00066 in series [2] (x2 = 0.1978); 1.46618 ± 0.00065 in series [2] (x2 = 0.2989); 1.46462 ± 0.00065 in series [2] (x2 = 0.3991). In addition, the refractive index in series [2] (x2 = 0.4991) is 1.46284 ± 0.00065; in series [2] (x2 = 0.5993), 1.45585 ± 0.00065; in series [2] (x2 = 0.7002), 1.43992 ± 0.00065; in series [2] (x2 = 0.7999) it was 1.41722 ± 0.00064; in series [2] (x2 = 0.9002), 1.39225 ± 0.00064; in series [2] (x2 = 0.9502), 1.37316 ± 0.00064.

As for `COC(=O)OC` [dimethyl carbonate] + CO, the mass density in series [1] (x1 = 0.0501) is given as 814.35 ± 0.45 kg/m3; in series [1] (x1 = 0.0997), 838.96 ± 0.41 kg/m3; in series [1] (x1 = 0.2008), 882.51 ± 0.36 kg/m3; in series [1] (x1 = 0.3003), 918.19 ± 0.31 kg/m3; in series [1] (x1 = 0.4002) it was 948.52 ± 0.27 kg/m3; in series [1] (x1 = 0.5005) it was 974.63 ± 0.24 kg/m3. The mass density in series [1] (x1 = 0.6004) is 997.16 ± 0.2 kg/m3; in series [1] (x1 = 0.7015), 1017.04 ± 0.21 kg/m3; in series [1] (x1 = 0.8012), 1034.29 ± 0.23 kg/m3; in series [1] (x1 = 0.8999), 1049.44 ± 0.26 kg/m3; in series [1] (x1 = 0.9483), 1056.31 ± 0.27 kg/m3; in series [1] (x1 = 1), 1063.28 ± 0.28 kg/m3. The refractive index in series [2] (x1 = 0.0501) came out at 1.33071 ± 0.00064; in series [2] (x1 = 0.0997), 1.33427 ± 0.00064; in series [2] (x1 = 0.2008), 1.34139 ± 0.00064; in series [2] (x1 = 0.3003), 1.347 ± 0.00064; in series [2] (x1 = 0.4002), 1.35162 ± 0.00064; in series [2] (x1 = 0.5005) it was 1.35583 ± 0.00064. For the same molecule, the refractive index in series [2] (x1 = 0.6004) is listed as 1.35891 ± 0.00064; in series [2] (x1 = 0.7015), 1.36093 ± 0.00064; in series [2] (x1 = 0.8012) it was 1.36336 ± 0.00064; in series [2] (x1 = 0.8999), 1.36501 ± 0.00064; in series [2] (x1 = 0.9483), 1.36566 ± 0.00064; in series [2] (x1 = 1), 1.36647 ± 0.00064.

As to `CCCCn1cc[n+](C)c1.F[B-](F)(F)F` [1-butyl-3-methylimidazolium tetrafluoroborate] + COC(=O)OC, the mass density was 1192.78 ± 0.71 kg/m3 in series [1] (x2 = 0); 1191.17 ± 0.69 kg/m3 in series [1] (x2 = 0.051); 1189.24 ± 0.67 kg/m3 in series [1] (x2 = 0.1014); 1184.98 ± 0.64 kg/m3 in series [1] (x2 = 0.1987); 1179.76 ± 0.6 kg/m3 in series [1] (x2 = 0.2999); 1173.39 ± 0.57 kg/m3 in series [1] (x2 = 0.4012). Besides, the mass density in series [1] (x2 = 0.5) was determined as 1165.72 ± 0.54 kg/m3; in series [1] (x2 = 0.6005), 1155.89 ± 0.5 kg/m3; in series [1] (x2 = 0.7007), 1143.06 ± 0.46 kg/m3; in series [1] (x2 = 0.8003), 1125.52 ± 0.41 kg/m3; in series [1] (x2 = 0.9) it was 1100.22 ± 0.35 kg/m3. The refractive index in series [2] (x2 = 0) is given as 1.41831 ± 0.00066; in series [2] (x2 = 0.051), 1.4176 ± 0.00066; in series [2] (x2 = 0.1014), 1.41675 ± 0.00066; in series [2] (x2 = 0.1987), 1.41501 ± 0.00066; in series [2] (x2 = 0.2999) it was 1.41282 ± 0.00065; in series [2] (x2 = 0.4012), 1.41049 ± 0.00065. The refractive index in series [2] (x2 = 0.5) was found to be 1.40796 ± 0.00065; in series [2] (x2 = 0.6005), 1.40459 ± 0.00065; in series [2] (x2 = 0.7007), 1.39931 ± 0.00064; in series [2] (x2 = 0.8003), 1.39196 ± 0.00064; in series [2] (x2 = 0.9) it was 1.38162 ± 0.00064.

In the case of `CO` [methanol] + CCCCn1cc[n+](C)c1.F[B-](F)(F)F, in series [1] (x1 = 1), the mass density came out at 786.72 ± 0.49 kg/m3. For the same molecule, the refractive index in series [2] (x1 = 1) is 1.32668 ± 0.00064.

On to `CO` [methanol] + CCOS(=O)(=O)[O-].CCn1cc[n+](C)c1, for which the mass density in series [1] (x1 = 1) is 786.72 ± 0.49 kg/m3. Moreover, in series [2] (x1 = 1), the refractive index was determined as 1.32668 ± 0.00064.

In the case of `COC(=O)OC` [dimethyl carbonate] + CCCCn1cc[n+](C)c1.F[B-](F)(F)F, the mass density in series [1] (x1 = 1) is reported as 1063.28 ± 0.28 kg/m3. In series [2] (x1 = 1), the refractive index is on record as 1.36647 ± 0.00064.

Regarding `COC(=O)OC` [dimethyl carbonate] + CCOS(=O)(=O)[O-].CCn1cc[n+](C)c1, the mass density in series [1] (x1 = 1) stood at 1063.28 ± 0.28 kg/m3. Moreover, the refractive index in series [2] (x1 = 1) was found to be 1.36647 ± 0.00064.

As a reminder, the mass density is mass per unit of volume. As a reminder, the refractive index is a measure of how strongly the sample bends light.

Source of the values: the NIST ThermoML archive (doi:10.1021/je9008624).
